Drawing on ChEMBL document CHEMBL5500324, “The potential of marine-derived piperazine alkaloids: Sources, structures and bioactivities” (Eur J Med Chem, 2024), this text covers IC50 for 4 compounds.

What all share (assay type): functional, cell-based
The test system of assay [1] is A549. Put plainly: Cytotoxicity against human A549 cells assessed as reduction in cell viability measured after 48 hrs by MTT assay. The note with it: A549, 48 h. For orientation: Tetrazolium dyes change colour on reduction, which living cells bring about.
In a further assay the test system is P388. The assay is described as follows: Cytotoxicity against mouse P388 cells assessed as inhibition of cell growth.
Assay [2] concerns A549. Put plainly: Cytotoxicity against human A549 cells assessed as inhibition of cell growth.
Another assay has as its system SK-MEL-28. The assay is described as follows: Cytotoxicity against human SK-MEL-28 cells assessed as inhibition of cell growth.
In another assay the test system is HT-29. Put plainly: Cytotoxicity against human HT-29 cells assessed as inhibition of cell growth.
For assay [3], the system named is A549. The assay is described as follows: Cytotoxicity against human A549 cells assessed as reduction in cell growth incubated for 72 hrs by SRB assay. To be noted: A549, 72 h.
Another assay relates to Bel-7402. Put plainly: Cytotoxicity against human Bel-7402 cells assessed as reduction in cell growth incubated for 72 hrs by SRB assay. The note with it: Bel-7402, 72 h.
The test system of a further assay is HL-60. Put plainly: Cytotoxicity against human HL-60 cells assessed as reduction in cell growth incubated for 72 hrs by SRB assay. The note with it: HL-60, 72 h. (In general: In SRB staining, fixed cells bind dye roughly in proportion to their protein.)
In assay [4] the test system is MKN-1. The assay is described as follows: Antiproliferative activity against human MKN-1 cells assessed as reduction in cell viability measured for 48 hrs by CCK-8 assay. The note with it: MKN-1, 48 h.
The test system of assay [5] is MKN-1. Put plainly: Cytotoxicity against human MKN-1 cells assessed as reduction in cell viability.
For assay [6], the system named is MKN-1. The assay is described as follows: Antiproliferative activity against human MKN-1 cells assessed as inhibition of cell proliferation by CCK8 assay.

Values after ≈ are worked out from the molar mass of the structure shown.

Usually IC50 stands for the concentration that gives 50% inhibition. For `COc1c(C)cc2c(c1O)[C@H]1[C@@H]3[C@@H]4SCC(=O)C(=O)OC[C@@H](c5c6c(c(C)c(OC(C)=O)c54)OCO6)N3[C@@H](O)[C@@H](C2)N1C`, the IC50 is 0.01 µg/mL (≈ 0.0163 µM) with A549 [1]; 10 µM in the assay on P388; 0.02 µg/mL (≈ 0.0326 µM) in the assay on A549 [2]; 0.025 µg/mL (≈ 0.0408 µM) with SK-MEL-28; 0.025 µg/mL (≈ 0.0408 µM) with HT-29.
In the case of `C=CC(C)(C)[C@@]12C[C@@]3(OC)C(=O)N/C(=C/c4cn(C(C)(C)CC(C)=O)cn4)C(=O)N3[C@]1(C)Nc1ccccc12`, the IC50 is 42.5 µM in the assay with A549 [3], above 50 µM in the assay with Bel-7402 and 36.6 µM in the assay on HL-60.
On to `C=CC(C)(C)c1[nH]c2cc(CC=C(C)C)ccc2c1/C=C1\NC(=O)[C@H](C)NC1=O`, for which the IC50 in the assay with MKN-1 [4] amounted to 4.6 µM.
Regarding `C=CC(C)(C)c1[nH]c2ccccc2c1/C=c1\[nH]c(=O)c(=C)[nH]c1=O` [NEOECHINULIN B], the 50% inhibitory concentration (IC50) in the assay with MKN-1 [5] was found to be 4.6 µM; in the assay on MKN-1 [6], 20.7 µM.
